Legend:
[1] = literature; cited from earlier work
[2] = Probe fluorescence in organic solvents of increasing polarity; type: physicochemical; conditions: 25° C., 2.6 μM probes
Method: Fluorescence measurements were performed with a Hitachi F4500 fluorometer. Excitation and emission slits were fixed at 5 nm and spectra were recorded at 25° C. using a 1 cm path length thermostated quartz micro-cuvette. 0.26 mM solutions of the probes were prepared in a dichloromethane: methanol mixture (3:1 volume ratio). Measurements were performed with […] probes diluted in the different solvents (see Table 1). The initial solvent of the stock solution thus represents 1% of the final volume.

[3] = Probe fluorescence in DMPC liposomes as a function of temperature (5 to 65° C.); type: physicochemical; conditions: for maximum emission wavelength, liquid crystalline phase: above phase transition temperature; for maximum emission wavelength, liquid crystalline phase / maximum emission wavelength, gel phase: excitation 385 nm; for maximum emission wavelength, gel phase: below phase transition temperature
Method: Liposomes were prepared in PBS buffer using a classical freeze/though protocol. In brief, lipids dissolved in chloroform were dried under vacuum. The lipid film formed was rehydrated with the PBS solution and agitated until the complete suspension of the lipid film. The vesicle solution was then submitted to 6 freeze/thaw (5 min in liquid nitrogen/10 min in 37° C. water bath) cycles and then extruded 19 times sequentially trough 400 nm and 200 nm polycarbonate membranes (Avanti Polar Lipids Liposome Extruder). The 200 nm liposome suspension was stored at 4° C.
Fluorescence data was obtained using a Hitachi F4500 fluorometer. Emission spectra were recorded between 420 and 600 nm with an excitation wavelength fixed at 385 nm and 5 nm excitation and emission slits. Ethanol solutions of fluorescent probes were prepared and added to liposomes at a 1:400 (probe: phospholipid) molar ratio. Liposomes were used at a 40 μg.mL^−1 final concentration. Measurements were done at 21° C. for all liposome compositions indicated in Table 2, except for DMPC where a range of temperature from 5 to 65° C. was also applied.
The spectral shift described above was quantified by calculation of the Generalized Polarization (GP) parameter. This parameter provides a quantitative index of membrane fluidity and is calculated as the difference between fluorescence emission intensity at a 440 nm (lipids with gel properties) and the intensity at 490 nm (wavelength evidenced in lipids with liquid crystal properties), divided by the sum of these two intensities. The GP parameter was thus calculated from fluorescence emission intensities according to the following formula: […]
where Igel and Ilc are, respectively, intensities of fluorescence at wavelengths characteristic of probe emission, respectively in gel and liquid crystal lipid phases.

[4] = Probe fluorescence intensity in POPC liposomes; type: physicochemical; conditions: 25° C., final concentration 0.2 μM
[5] = DIOLL probe fluorescence-based liposome quantification; conditions: POPC liposomes; 21° C.; excitation 390 nm
Method: A POPC solution of known concentration (100 μg.ml^−1) was used as standard. Increasing volumes of the standard solution were diluted with buffer in a 96 well plate (Nunc). The final volume per well was 200 μl and lipid concentrations between 0 and 80 μg.ml^−1 were used. Samples were prepared in parallel to a final volume of 200 μl per well.
A constant volume of DIOLL solution in ethanol (5 μl) was added in each well to obtain a final DIOLL concentration of 2 μM. The volume of ethanol added represented 2.5% of the final volume and had no effect on liposome integrity. The plate was incubated at room temperature for 10 min. Fluorescence emission spectra were recorded between 420 nm and 600 nm for an excitation wavelength of 390 nm with a TECAN InfiniteM200 plate reader. Spectra were recorded at 21° C.
The surface under the spectrum was calculated for each condition using an Excel complementary function, IntegralP (www.fordom.free.fr) which allows one to calculate the integral of a function when discrete data sets are available. Maximum fluorescence intensities or surfaces under the curve were plotted as a function of the lipid concentration to obtain the standard curve. […]
To conclude upon the repeatability of the method, the coefficient of variation (CV) was calculated as the percentage of the standard deviation on the mean of 5 independent measurements. […]

[6] = DIOLL fluorescence in DMPC liposomes (plate reader, quantification method); type: physicochemical; conditions: 21° C., excitation 390 nm
Method: (§1) Liposomes were prepared using a classical freeze/thaw protocol. Briefly, the appropriate lipid mixture solubilized in chloroform was dried under vacuum, then solubilized with 1 ml buffer under strong agitation. Assays were done either in HEPES 20 mM pH 7.4 buffer 100 mM NaCl or in PBS. The liposome emulsion obtained was submitted to 6 freeze/thaw cycles (5 min in liquid nitrogen/10 min in a water bath at 37° C., 1 minute strong agitation) to decrease the number of bilayers and obtain unilamellar vesicles. To obtain homogenous vesicles, the liposome solution was extruded successively through a 400 nm and 100 nm polycarbonate membrane using an extruder (Avanti Polar Lipids). Liposomes were routinely prepared at lipid concentrations between 1 and 10 mg.ml^−1 and subsequently diluted at the desired concentration. A constant volume of DIOLL solution in ethanol (5 μl) was added in each well to obtain a final DIOLL concentration of 2 μM. The volume of ethanol added represented 2.5% of the final volume and had no effect on liposome integrity. The plate was incubated at room temperature for 10 min. Fluorescence emission spectra were recorded between 420 nm and 600 nm for an excitation wavelength of 390 nm with a TECAN InfiniteM200 plate reader. Spectra were recorded at 21° C.

[7] = DIOLL fluorescence in DPPC liposomes (plate reader, quantification method); type: physicochemical; conditions: 21° C., excitation 390 nm
Method: as §1

[8] = Determination of nanoemulsion (NE) fluidity with DIOLL probe; type: physicochemical
[9] = tested on: influenza virus membranes; experiment: Labeling of viral membranes and GP calculation; conditions: 21° C.; excitation 390 nm
[10] = carboxylic group; cited from earlier work
[11] = cited from earlier work

| Structure (SMILES) | emission maximum, gel phase membranes [1] [nm] | emission maximum, liquid crystalline phase membranes [1] [nm] | Maximum fluorescence intensity ([2]; Chloroform) [A. U.] | λ emission maximum ([2]; Chloroform) [nm] | Maximum fluorescence intensity ([2]; DMSO) [A. U.] | λ emission maximum ([2]; DMSO) [nm] | Maximum fluorescence intensity ([2]; Ethanol) [A. U.] | λ emission maximum ([2]; Ethanol) [nm] | Maximum fluorescence intensity ([2]; Toluene) [A. U.] | λ emission maximum ([2]; Toluene) [nm] | gel over liquid crystalline ratio of fluorescence intensity [3] | inflexion point of first derivative of GP vs temperature [3] [°C] | maximum emission wavelength, liquid crystalline phase [3] | maximum emission wavelength, gel phase [3] [nm] | further results |
| --- | --- | --- | --- | --- | --- | --- | --- | --- | --- | --- | --- | --- | --- | --- | --- |
| CCCCN(CCCC)c1ccc2cc(/C=C/c3cc[n+](CC(O)C[N+](C)(C)CCO)cc3)ccc2c1.[Br-].[Br-] (stereo not shown) [Di-4-ANEPPDHQ] | 560 | 610 | – | – | – | – | – | – | – | – | – | – | – | – | – |
| CCCCCCCCCCCC(=O)c1ccc2cc(N(C)CC(O)CO)ccc2c1 (stereo not shown) [DIOLL, 1-(6-((2,3-dihydroxypropyl)(methyl)amino)naphthalen-2-yl)dodecan-1-one] | – | – | 5041 | 424 | 9384 | 441 | 7647 | 486 | 5041 | 424 | 0.8 | 23 | 490 nm | 440 | λ emission maximum ([2]; Chloroform, listed as DIOLL probe): 441 nm; λ emission maximum ([2]; DMSO, listed as DIOLL probe): 460 nm; λ emission maximum ([2]; Toluene, listed as DIOLL probe): 425 nm; fluorescence intensity, fold higher than that of Laurdan and C-Laurdan [4]: 7 fold; fluorescence intensity emission maximum [5]: 490 nm; maximum fluorescence emission [6]: 440 nm; maximum fluorescence emission [7]: 440 nm; fluorescence emission peak dissolved in MCT ([8]; 2.6 μM in MCT, single peak): 440 nm; fluorescence emission dissolved in water ([8]; 2.6 μM in water): no fluorescence emission was detected; maximum fluorescence intensity wavelength [9]: 440 nm |
| CCCCCCCCCCCC(=O)c1ccc2cc(N(C)CC(=O)O)ccc2c1 [C-Laurdan, 6-Dodecanoyl-2-[N-methyl-N-(carboxymethyl)amino] naphthalene] | – | – | 3115 | 432 | 2428 | 450 | 1491 | 485 | 359 | 416 | – | – | – | – | pKa [10]: 6.6 |
| CCCCCCCCCCCC(=O)c1ccc2cc(N(C)C)ccc2c1 [Laurdan, 6-dodecanoyl-2-dimethylaminonaphthalene] | 440 | 490 | 4441 | 440 | 5533 | 460 | 4221 | 485 | 3814 | 423 | 0.6 | 23 | around 490 nm | 440 | fluorescence emission peak when incubated with NE solution ([8]; single peak): 440 nm; solubility in aqueous buffers [11]: low solubility in aqueous buffers |

From patent US20220390458A1, “FLUORESCENT PROBE AND APPLICATIONS THEREOF” (CENTRE NATIONAL DE LA RECHERCHE SCIENTIFIQUE (CNRS), priority 2019, published 2022)
